Data taken from ChEMBL document CHEMBL5465560, “Selectivity Literature for EUbOPEN Chemogenomic Library” (2024).

Experiments:
[1] = target: Dual specificity protein kinase CLK1 (Homo sapiens, UniProt P49759); experiment: Selectivity interaction (KinomeScan (DiscoverX)) EUB0000229b CLK1; settings: at 10 µM
[2] = target: Serine/threonine-protein kinase 16 (Homo sapiens, UniProt O75716); experiment: Selectivity interaction (Enzymatic assay) EUB0001550a STK16
[3] = target: T1, Serine/threonine-protein kinase STK11 (Homo sapiens) (UniProt Q15831); experiment: Selectivity interaction (Upstate Kinase Profiler service (Millipore)) EUB0000056c STK11; settings: at 1 µM
T1 sequence (whole entry): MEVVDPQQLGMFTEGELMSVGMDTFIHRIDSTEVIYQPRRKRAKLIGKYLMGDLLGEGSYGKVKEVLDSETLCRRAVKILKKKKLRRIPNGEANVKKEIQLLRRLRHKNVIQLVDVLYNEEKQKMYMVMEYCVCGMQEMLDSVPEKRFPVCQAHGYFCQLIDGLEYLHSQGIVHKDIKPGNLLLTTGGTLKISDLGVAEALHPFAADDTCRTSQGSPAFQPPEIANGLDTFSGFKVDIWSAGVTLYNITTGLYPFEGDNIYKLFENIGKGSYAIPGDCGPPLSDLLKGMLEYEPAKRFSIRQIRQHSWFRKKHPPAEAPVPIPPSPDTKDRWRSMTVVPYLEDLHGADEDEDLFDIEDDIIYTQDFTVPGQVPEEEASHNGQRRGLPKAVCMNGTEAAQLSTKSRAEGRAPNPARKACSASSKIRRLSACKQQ

[4] = target: Hepatocyte growth factor receptor (Homo sapiens, UniProt P08581); settings: at 1 µM
Sequence of Hepatocyte growth factor receptor (P08581 whole entry): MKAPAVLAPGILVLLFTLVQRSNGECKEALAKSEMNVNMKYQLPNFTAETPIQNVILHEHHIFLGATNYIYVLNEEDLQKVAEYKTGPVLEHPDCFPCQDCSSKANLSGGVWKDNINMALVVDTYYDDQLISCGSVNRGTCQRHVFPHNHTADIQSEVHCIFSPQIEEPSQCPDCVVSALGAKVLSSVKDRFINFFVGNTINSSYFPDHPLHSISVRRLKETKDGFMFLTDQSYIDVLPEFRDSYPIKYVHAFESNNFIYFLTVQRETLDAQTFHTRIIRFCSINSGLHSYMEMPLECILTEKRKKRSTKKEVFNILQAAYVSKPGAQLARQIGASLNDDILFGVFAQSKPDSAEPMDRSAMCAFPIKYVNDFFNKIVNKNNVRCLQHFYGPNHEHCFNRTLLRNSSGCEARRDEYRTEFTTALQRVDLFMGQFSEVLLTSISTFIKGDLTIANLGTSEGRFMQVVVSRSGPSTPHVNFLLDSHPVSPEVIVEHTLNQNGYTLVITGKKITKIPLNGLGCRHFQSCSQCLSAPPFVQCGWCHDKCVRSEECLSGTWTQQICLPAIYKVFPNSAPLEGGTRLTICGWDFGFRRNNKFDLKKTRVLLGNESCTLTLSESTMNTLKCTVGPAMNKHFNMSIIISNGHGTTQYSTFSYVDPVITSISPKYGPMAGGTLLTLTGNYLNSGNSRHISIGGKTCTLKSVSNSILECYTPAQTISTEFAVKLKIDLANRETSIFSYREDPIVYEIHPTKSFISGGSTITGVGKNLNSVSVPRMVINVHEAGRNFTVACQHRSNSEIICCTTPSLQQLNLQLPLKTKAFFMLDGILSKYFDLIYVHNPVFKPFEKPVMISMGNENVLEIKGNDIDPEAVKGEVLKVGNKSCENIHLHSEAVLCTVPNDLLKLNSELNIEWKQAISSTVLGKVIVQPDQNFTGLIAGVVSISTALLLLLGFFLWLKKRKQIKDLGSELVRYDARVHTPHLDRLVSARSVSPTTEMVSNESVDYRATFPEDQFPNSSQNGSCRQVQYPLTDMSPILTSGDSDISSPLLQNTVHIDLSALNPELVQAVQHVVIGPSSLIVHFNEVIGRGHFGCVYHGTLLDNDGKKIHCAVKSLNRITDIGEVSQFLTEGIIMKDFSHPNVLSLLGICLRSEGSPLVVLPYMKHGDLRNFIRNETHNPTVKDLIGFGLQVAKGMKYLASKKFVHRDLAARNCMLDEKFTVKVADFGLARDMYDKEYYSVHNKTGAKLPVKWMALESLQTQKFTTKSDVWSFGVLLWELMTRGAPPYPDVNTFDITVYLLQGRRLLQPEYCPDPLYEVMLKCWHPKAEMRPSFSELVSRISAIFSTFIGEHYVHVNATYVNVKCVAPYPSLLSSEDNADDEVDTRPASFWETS

[5] = target: Phosphatidylinositol 4-kinase alpha (Homo sapiens, UniProt P42356); experiment: Selectivity interaction (ActivX KiNativ screen (kinase selectivity in THP-1 cell lysates)) EUB0000639a PI4KA; type: subcellular; settings: lysate
Sequence of Phosphatidylinositol 4-kinase alpha (P42356 whole entry, looked up): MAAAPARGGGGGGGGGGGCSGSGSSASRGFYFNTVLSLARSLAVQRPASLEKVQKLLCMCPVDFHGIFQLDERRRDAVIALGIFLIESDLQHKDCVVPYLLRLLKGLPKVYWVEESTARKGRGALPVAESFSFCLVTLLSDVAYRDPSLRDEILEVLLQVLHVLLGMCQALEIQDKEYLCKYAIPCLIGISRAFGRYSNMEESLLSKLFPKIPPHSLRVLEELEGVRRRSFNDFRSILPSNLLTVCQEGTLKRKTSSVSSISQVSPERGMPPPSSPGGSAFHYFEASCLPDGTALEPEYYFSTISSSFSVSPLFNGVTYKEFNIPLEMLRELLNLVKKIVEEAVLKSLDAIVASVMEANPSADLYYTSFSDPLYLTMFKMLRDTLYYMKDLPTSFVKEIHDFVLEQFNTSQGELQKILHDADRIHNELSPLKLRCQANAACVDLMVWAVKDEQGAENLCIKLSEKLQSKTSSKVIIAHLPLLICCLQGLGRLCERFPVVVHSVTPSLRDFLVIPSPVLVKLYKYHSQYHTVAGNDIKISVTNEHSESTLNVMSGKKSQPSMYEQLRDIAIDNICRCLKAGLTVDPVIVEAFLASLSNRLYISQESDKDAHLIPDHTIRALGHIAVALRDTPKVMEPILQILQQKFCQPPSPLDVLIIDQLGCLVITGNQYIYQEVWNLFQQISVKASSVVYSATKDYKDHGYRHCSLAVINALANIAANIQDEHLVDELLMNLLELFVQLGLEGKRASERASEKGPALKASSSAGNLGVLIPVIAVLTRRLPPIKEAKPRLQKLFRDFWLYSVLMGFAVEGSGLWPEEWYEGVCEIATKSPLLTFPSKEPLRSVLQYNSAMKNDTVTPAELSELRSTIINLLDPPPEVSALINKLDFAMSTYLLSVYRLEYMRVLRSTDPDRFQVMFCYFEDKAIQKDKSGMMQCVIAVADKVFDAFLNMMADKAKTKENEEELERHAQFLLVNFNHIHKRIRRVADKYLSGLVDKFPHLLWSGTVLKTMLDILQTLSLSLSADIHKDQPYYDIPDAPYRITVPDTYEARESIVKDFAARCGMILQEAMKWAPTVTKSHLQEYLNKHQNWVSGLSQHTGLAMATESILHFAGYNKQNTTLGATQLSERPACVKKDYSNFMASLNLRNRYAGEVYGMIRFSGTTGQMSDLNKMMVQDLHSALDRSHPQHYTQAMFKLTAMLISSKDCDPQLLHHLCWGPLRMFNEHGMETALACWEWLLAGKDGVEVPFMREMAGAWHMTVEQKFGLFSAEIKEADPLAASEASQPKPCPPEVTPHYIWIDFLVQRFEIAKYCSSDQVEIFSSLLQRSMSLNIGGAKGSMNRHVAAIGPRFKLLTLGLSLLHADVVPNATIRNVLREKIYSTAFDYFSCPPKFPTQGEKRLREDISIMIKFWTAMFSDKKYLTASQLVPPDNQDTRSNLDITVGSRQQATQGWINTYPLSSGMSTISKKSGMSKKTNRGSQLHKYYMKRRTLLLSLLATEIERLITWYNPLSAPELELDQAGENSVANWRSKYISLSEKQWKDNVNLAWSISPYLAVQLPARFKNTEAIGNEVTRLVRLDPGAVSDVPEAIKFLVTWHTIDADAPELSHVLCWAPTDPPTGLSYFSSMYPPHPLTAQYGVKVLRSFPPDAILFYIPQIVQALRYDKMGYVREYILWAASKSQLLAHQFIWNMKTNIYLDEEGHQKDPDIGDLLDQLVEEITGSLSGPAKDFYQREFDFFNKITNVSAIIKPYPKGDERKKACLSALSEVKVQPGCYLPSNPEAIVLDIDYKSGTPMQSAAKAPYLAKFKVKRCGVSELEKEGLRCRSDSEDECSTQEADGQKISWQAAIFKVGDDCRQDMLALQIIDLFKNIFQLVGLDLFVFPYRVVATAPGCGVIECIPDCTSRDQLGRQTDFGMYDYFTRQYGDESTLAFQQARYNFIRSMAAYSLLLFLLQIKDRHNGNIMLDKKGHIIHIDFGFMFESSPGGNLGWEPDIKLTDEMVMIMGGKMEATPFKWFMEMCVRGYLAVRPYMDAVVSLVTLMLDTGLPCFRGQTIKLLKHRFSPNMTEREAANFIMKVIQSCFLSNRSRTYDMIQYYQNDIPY

[6] = target: T2, Dual serine/threonine and tyrosine protein kinase (Homo sapiens) (UniProt Q6XUX3); experiment: Selectivity interaction (KinomeScan (DiscoverX)) EUB0000695a DSTYK; settings: at 100 nM
T2 sequence (whole entry): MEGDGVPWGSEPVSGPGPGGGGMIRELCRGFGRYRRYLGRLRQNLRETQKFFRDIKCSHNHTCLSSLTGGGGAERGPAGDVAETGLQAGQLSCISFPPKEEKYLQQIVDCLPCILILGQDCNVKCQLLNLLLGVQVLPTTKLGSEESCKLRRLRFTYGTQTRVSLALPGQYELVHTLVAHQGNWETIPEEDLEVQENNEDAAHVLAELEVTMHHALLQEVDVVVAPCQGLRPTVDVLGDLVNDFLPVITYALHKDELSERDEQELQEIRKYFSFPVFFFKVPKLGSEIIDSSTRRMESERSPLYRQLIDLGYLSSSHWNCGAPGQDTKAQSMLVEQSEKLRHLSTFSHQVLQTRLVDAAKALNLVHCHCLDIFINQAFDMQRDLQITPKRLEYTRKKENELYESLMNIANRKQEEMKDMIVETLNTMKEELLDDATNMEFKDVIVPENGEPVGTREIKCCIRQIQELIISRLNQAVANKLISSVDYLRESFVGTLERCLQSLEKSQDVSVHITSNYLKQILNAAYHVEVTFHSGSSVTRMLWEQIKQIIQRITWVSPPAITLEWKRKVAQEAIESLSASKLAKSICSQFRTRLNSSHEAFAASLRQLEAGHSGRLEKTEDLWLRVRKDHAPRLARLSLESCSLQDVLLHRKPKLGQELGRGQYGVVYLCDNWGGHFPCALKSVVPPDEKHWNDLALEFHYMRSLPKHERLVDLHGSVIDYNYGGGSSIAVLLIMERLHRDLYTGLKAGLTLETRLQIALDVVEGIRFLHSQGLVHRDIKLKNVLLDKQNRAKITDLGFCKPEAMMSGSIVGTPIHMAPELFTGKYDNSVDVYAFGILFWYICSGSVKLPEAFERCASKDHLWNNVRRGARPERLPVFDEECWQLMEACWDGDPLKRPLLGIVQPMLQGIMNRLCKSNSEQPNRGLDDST

[7] = target: T3, Bone morphogenetic protein receptor type-2 (Homo sapiens) (UniProt Q13873); experiment: Selectivity interaction (KinomeScan (DiscoverX)) EUB0000618a BMPR2; settings: at 10 µM
T3 sequence (whole entry): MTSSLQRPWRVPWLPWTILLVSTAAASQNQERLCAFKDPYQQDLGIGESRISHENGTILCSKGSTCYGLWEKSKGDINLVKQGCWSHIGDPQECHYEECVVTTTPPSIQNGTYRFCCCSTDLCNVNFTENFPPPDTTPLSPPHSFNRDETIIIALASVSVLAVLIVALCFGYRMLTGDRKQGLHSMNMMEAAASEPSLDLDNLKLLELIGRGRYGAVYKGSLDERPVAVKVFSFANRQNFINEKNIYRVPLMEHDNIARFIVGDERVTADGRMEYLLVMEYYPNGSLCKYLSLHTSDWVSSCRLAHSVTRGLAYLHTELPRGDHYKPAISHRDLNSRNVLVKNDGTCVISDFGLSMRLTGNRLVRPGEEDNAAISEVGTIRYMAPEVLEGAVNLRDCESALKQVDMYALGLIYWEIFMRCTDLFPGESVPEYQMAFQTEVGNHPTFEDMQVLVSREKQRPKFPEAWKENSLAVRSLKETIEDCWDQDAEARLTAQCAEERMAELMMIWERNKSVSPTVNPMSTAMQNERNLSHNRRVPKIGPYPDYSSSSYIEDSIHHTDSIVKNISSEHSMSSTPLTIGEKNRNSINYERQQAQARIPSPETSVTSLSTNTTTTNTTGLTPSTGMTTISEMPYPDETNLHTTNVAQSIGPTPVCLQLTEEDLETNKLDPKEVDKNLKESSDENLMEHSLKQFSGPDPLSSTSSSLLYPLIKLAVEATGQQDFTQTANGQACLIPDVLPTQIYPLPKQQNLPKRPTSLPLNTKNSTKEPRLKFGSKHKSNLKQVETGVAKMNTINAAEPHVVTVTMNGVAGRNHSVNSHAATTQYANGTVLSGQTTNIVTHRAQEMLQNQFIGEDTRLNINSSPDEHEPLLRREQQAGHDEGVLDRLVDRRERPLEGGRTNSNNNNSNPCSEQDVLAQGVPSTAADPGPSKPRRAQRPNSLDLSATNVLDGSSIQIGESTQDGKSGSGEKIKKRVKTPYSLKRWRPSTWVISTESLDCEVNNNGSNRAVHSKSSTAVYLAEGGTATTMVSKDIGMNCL

Sequence of Dual specificity protein kinase CLK1 (P49759 whole entry, looked up): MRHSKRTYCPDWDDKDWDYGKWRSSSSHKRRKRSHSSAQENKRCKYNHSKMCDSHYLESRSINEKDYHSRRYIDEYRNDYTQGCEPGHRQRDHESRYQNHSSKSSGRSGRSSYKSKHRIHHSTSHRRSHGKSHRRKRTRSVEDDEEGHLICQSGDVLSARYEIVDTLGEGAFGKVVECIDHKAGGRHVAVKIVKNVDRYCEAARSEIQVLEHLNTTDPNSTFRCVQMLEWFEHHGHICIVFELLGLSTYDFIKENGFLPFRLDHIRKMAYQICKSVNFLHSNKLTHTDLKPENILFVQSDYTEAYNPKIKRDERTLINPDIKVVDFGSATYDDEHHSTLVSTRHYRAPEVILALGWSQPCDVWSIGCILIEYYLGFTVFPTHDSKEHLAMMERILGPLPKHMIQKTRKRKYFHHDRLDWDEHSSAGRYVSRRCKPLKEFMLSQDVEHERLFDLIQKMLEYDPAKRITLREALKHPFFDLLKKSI
Sequence of Serine/threonine-protein kinase 16 (O75716 whole entry): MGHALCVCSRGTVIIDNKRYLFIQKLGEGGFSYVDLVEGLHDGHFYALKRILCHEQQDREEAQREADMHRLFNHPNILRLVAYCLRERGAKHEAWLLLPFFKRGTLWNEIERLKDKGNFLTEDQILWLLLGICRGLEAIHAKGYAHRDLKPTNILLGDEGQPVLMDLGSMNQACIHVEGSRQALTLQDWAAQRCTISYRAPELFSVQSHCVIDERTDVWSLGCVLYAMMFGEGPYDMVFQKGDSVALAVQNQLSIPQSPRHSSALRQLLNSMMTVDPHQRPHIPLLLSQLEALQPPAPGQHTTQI

Question: How did the % binding [1] turn out when `COc1cc(N(C)c2ccnc3ccc(C(F)(F)F)cc23)cc(OC)c1OC` was run?
Answer: 84%

Question: With `CN(C)CC#Cc1ccc2[nH]c3c(c2c1)-c1nc(N)ncc1CCC3` as the molecule, how does the IC50 [2] read?
Answer: 0.56 µM

Question: `Cc1ccc(-c2ccc3c(ccc4sc5c(c43)NC[C@@H](C)NC5=O)n2)cn1` was tested. Which % of inhibition [3] did it give?
Answer: -15%

Question: And the % of inhibition [4]?
Answer: 41%

Question: Which % of inhibition ([5]; at 0.01 µM) does the source give for `CC[C@@H]1[C@H](F)C(=O)N[C@@H]1COc1nccc2cc(C(N)=O)c(OC)cc12` [ZIMLOVISERTIB] here?
Answer: 7.2%

Question: And the % of inhibition ([5]; at 0.04 µM)?
Answer: -7.1%

Question: What about the % of inhibition ([5]; at 0.2 µM) of the same molecule?
Answer: -24.4%

Question: And the % of inhibition ([5]; at 1 µM)?
Answer: -6%

Question: What about the % of inhibition ([5]; at 5 µM) of the same molecule?
Answer: 38.5%

Question: Which % of control [6] does the source give for `Cc1cc(F)c(C(=O)Nc2cccc(-c3nncn3C(C)C)n2)cc1-n1cnc(C2CC2)c1` here?
Answer: 79%

Question: For `O[C@H]1CC[C@H](Nc2ncc3nc(Nc4c(F)cc(F)cc4F)n([C@H]4CCOC4)c3n2)CC1`, which % of control [7] is on record?
Answer: 78%
